These results are taken from patent US12157746B2, “Tetrahydro-1H-pyrazino[2,1-a]isoindolylquinoline compounds for the treatment of autoimmune disease” (F. HOFFMANN-LA ROCHE AG, priority 2018, dated 2024).

SMILES strings stand for the structures. Where only a bound is given, the exact number is not on record here.

This assay addresses T1, human TLR7 (Homo sapiens, UniProt Q9NYK1).
T1 sequence (Q9NYK1 27-1049): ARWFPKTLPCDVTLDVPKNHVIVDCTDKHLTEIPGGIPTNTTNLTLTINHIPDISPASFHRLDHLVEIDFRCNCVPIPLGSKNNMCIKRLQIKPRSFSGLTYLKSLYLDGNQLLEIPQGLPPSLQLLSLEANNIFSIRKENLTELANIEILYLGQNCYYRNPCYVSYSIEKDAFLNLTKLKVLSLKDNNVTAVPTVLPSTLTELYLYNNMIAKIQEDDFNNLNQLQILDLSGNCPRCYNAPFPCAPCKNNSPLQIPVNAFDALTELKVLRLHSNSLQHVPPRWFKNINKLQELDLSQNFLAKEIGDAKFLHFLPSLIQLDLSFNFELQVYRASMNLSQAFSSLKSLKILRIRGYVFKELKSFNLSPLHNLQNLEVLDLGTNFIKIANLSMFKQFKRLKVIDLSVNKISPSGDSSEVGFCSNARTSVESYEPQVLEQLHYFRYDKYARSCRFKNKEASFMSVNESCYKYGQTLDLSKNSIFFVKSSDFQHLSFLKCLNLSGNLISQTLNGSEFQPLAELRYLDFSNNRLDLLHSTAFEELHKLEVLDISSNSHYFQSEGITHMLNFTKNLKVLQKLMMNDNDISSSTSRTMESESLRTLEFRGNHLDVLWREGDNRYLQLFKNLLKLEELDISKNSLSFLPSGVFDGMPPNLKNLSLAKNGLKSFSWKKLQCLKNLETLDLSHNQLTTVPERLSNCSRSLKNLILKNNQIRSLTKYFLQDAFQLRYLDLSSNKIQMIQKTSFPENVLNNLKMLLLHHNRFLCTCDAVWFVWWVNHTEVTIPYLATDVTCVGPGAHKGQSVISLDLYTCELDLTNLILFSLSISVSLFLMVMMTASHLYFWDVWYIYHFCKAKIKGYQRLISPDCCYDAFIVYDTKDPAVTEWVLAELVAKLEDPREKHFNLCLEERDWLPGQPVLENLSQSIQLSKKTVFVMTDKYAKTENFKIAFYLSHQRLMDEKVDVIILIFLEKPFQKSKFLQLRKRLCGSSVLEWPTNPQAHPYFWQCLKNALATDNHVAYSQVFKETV
The assay is described as follows: HEK293-Blue-hTLR-7 cells assay. The assay is classed as cell-based. To be noted: HEK293-Blue-hTLR7 cells, R848 stimulation, 20 hrs, SEAP reporter; read-out: HEK/hTLR7 IC50. The method in brief: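 HEK293-Blue-hTLR7 cells (NF-κB/AP-1-driven SEAP reporter) incubated with serially diluted compound (1% DMSO final) and R848 agonist for 20 h at 37 °C. Supernatant SEAP measured with QUANTI-Blue (2 h, 37 °C) by absorbance at 620-655 nm; antagonism seen as reduced reporter.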

As for `C[C@@H]1CN(c2ccc(C#N)c3ncccc23)C[C@@H]2c3ccc(N4C[C@@H]5CNCCN5C4=O)cc3CN12` [Example 71, 5-[(4R,10bS)-8-[(8aS)-3-oxo-1,5,6,7,8,8a-hexahydroimidazo[1,5-a]pyrazin-2-yl]-4-methyl-3,4,6,10b-tetrahydro-1H-pyrazino[2,1-a]isoindol-2-yl]quinoline-8-carbonitrile], the IC50 is under 3.2 nM.
For `C[C@@H]1CN(c2ccc(C#N)c3ncccc23)C[C@@H]2c3ccc(NC[C@@H]4CNCCO4)cc3CN12` [Example 58, 5-[(4R,10bS)-4-methyl-8-[[(2S)-morpholin-2-yl]methylamino]-3,4,6,10b-tetrahydro-1H-pyrazino[2,1-a]isoindol-2-yl]quinoline-8-carbonitrile] the value was under 3.2 nM; for `C[C@@H]1CN(c2ccc(C#N)c3ncccc23)C[C@@H]2c3ccc(C(=O)N4CCC(C)(N)CC4)cc3CN12` [Example 88, 5-[(4R,10bS)-8-(4-amino-4-methyl-piperidine-1-carbonyl)-4-methyl-3,4,6,10b-tetrahydro-1H-pyrazino[2,1-a]isoindol-2-yl]quinoline-8-carbonitrile], 3.7 nM; for `C[C@@H]1CN(c2ccc(C#N)c3ncccc23)C[C@@H]2c3ccc(OC[C@@H]4C[C@H](F)CN4)cc3CN12` [Example 74, 5-[(4R,10bS)-8-[[(2S,4S)-4-fluoropyrrolidin-2-yl]methoxy]-4-methyl-3,4,6,10b-tetrahydro-1H-pyrazino[2,1-a]isoindol-2-yl]quinoline-8-carbonitrile], 3.9 nM.
For `N#Cc1ccc(N2CCN3Cc4cc(N5CCNCC5)ccc4C3C2)c2cccnc12` (stereo not shown) [Example 3, 5-(8-piperazin-1-yl-3,4,6,10b-tetrahydro-1H-pyrazino[2,1-a]isoindol-2-yl)quinoline-8-carbonitrile] the value was 42.6 nM.
For the compound `Cc1ccc(N2C[C@@H](C)N3Cc4cc(N[C@H]5CNC[C@H]5F)ccc4[C@H]3C2)c2cccnc12` [Example 75, (4R,10bS)—N-[(3S,4R)-4-fluoropyrrolidin-3-yl]-4-methyl-2-(8-methyl-5-quinolyl)-3,4,6,10b-tetrahydro-1H-pyrazino[2,1-a]isoindol-8-amine], the IC50 worked out at 47.8 nM.
For `C[C@@H]1CN(c2ccc(C#N)c3ncccc23)C[C@@H]2c3ccc(N[C@@H]4CNCCOC4)cc3CN12` [Example 56A, 5-[(4R,10bS)-4-methyl-8-[[(6R)-1,4-oxazepan-6-yl]amino]-3,4,6,10b-tetrahydro-1H-pyrazino[2,1-a]isoindol-2-yl]quinoline-8-carbonitrile] the value was 11.1 nM; for `C[C@@H]1CN(c2ccc(C#N)c3ncccc23)C[C@@H]2c3cc(F)c(N4C[C@H](N)[C@@](C)(O)C4)cc3CN12` [Example 83, 5-[(4R,10bS)-8-[(3S,4S)-4-amino-3-hydroxy-3-methyl-pyrrolidin-1-yl]-9-fluoro-4-methyl-3,4,6,10b-tetrahydro-1H-pyrazino[2,1-a]isoindol-2-yl]quinoline-8-carbonitrile], 2.7 nM; for `C[C@@H]1CN(c2ccc(C#N)c3ncccc23)C[C@@H]2c3ccc(NCCN4CC[C@H](O)C4)cc3CN12` [Example 68, 5-[(4R,10bS)-8-[2-[(3S)-3-hydroxypyrrolidin-1-yl]ethylamino]-4-methyl-3,4,6,10b-tetrahydro-1H-pyrazino[2,1-a]isoindol-2-yl]quinoline-8-carbonitrile], 3.3 nM.
For `C[C@@H]1CN(c2ccc(C#N)c3ncsc23)C[C@@H]2c3ccc(N[C@H]4CNC[C@H]4F)cc3CN12` [Example 78, 7-[(4R,10bS)-8-[[(3S,4R)-4-fluoropyrrolidin-3-yl]amino]-4-methyl-3,4,6,10b-tetrahydro-1H-pyrazino[2,1-a]isoindol-2-yl]-1,3-benzothiazole-4-carbonitrile] the value was 1.2 nM.
For `C[C@H]1CN(c2ccc(C#N)c3ncccc23)C[C@H]2c3ccc(N4CCNCC4)cc3CN12` [Example 2, 5-[(4S,10bR)-4-methyl-8-piperazin-1-yl-3,4,6,10b-tetrahydro-1H-pyrazino[2,1-a]isoindol-2-yl]quinoline-8-carbonitrile] the value was 71.5 nM; for `C[C@@H]1CN(c2ccc(C#N)c3ncccc23)C[C@@H]2c3ccc(NCC4(F)CNC4)cc3CN12` [Example 69, 5-[(4R,10bS)-8-[(3-fluoroazetidin-3-yl)methylamino]-4-methyl-3,4,6,10b-tetrahydro-1H-pyrazino[2,1-a]isoindol-2-yl]quinoline-8-carbonitrile], 18.2 nM.
For the compound `C[C@@H]1CN(c2ccc(C#N)c3ncccc23)C[C@@H]2c3ccc(N[C@@H]4CCCNC4)cc3CN12` [Example 65, 5-[(4R,10bS)-4-methyl-8-[[(3R)-3-piperidyl]amino]-3,4,6,10b-tetrahydro-1H-pyrazino[2,1-a]isoindol-2-yl]quinoline-8-carbonitrile], the IC50 is 4.4 nM.
As to `CO[C@H]1CNCC[C@H]1Nc1ccc2c(c1)CN1[C@H](C)CN(c3ccc(C#N)c4ncccc34)C[C@H]21` [Example 66, 5-[(4R,10bS)-8-[[(3S,4R)-3-methoxy-4-piperidyl]amino]-4-methyl-3,4,6,10b-tetrahydro-1H-pyrazino[2,1-a]isoindol-2-yl]quinoline-8-carbonitrile], the IC50 was under 3.2 nM.
For `C[C@@H]1CN(c2ccc(C#N)c3ncccc23)C[C@@H]2c3cc(F)c(N4CC5CNCC(C4)O5)cc3CN12` [Example 85, 5-[(4R,10bS)-9-fluoro-4-methyl-8-(9-oxa-3,7-diazabicyclo[3.3.1]nonan-3-yl)-3,4,6,10b-tetrahydro-1H-pyrazino[2,1-a]isoindol-2-yl]quinoline-8-carbonitrile] the value was 6.9 nM; for `C[C@@H]1CN(c2ccc(C#N)c3ncccc23)C[C@@H]2c3ccc(NC[C@@H]4C[C@H](F)CN4)cc3CN12` [Example 70, 5-[(4R,10bS)-8-[[(2S,4S)-4-fluoropyrrolidin-2-yl]methylamino]-4-methyl-3,4,6,10b-tetrahydro-1H-pyrazino[2,1-a]isoindol-2-yl]quinoline-8-carbonitrile], 9 nM.
For `C[C@@H]1CN(c2ccc(C#N)c3ncccc23)C[C@@H]2c3ccc(NC[C@H]4CNCCO4)cc3CN12` [Example 59, 5-[(4R,10bS)-4-methyl-8-[[(2R)-morpholin-2-yl]methylamino]-3,4,6,10b-tetrahydro-1H-pyrazino[2,1-a]isoindol-2-yl]quinoline-8-carbonitrile] the value was under 3.2 nM; for `CO[C@H]1CNC[C@H]1Nc1ccc2c(c1)CN1[C@H](C)CN(c3ccc(C#N)c4ncccc34)C[C@H]21` [Example 61, 5-[(4R,10bS)-8-[[(3R,4S)-4-methoxypyrrolidin-3-yl]amino]-4-methyl-3,4,6,10b-tetrahydro-1H-pyrazino[2,1-a]isoindol-2-yl]quinoline-8-carbonitrile], 5.7 nM.
For `C[C@@H]1CN(c2ccc(C#N)c3ncccc23)C[C@@H]2c3ccc(N4C[C@H]5CNCCN5C4=O)cc3CN12` [Example 72, 5-[(4R,10bS)-8-[(8aR)-3-oxo-1,5,6,7,8,8a-hexahydroimidazo[1,5-a]pyrazin-2-yl]-4-methyl-3,4,6,10b-tetrahydro-1H-pyrazino[2,1-a]isoindol-2-yl]quinoline-8-carbonitrile] the value was under 3.2 nM.
With `C[C@@H]1CN(c2ccc(Cl)c3ncccc23)C[C@@H]2c3ccc(N[C@H]4CNC[C@H]4F)cc3CN12` [Example 79, (4R,10b)-2-(8-chloro-5-quinolyl)-N-[(3S,4R)-4-fluoropyrrolidin-3-yl]-4-methyl-3,4,6,10b-tetrahydro-1H-pyrazino[2,1-a]isoindol-8-amine], the IC50 was 7.6 nM.
For `CO[C@H]1CNC[C@@H]1Nc1ccc2c(c1)CN1[C@H](C)CN(c3ccc(C#N)c4ncccc34)C[C@H]21` [Example 62, 5-[(4R,10bS)-8-[[(3S,4S)-4-methoxypyrrolidin-3-yl]amino]-4-methyl-3,4,6,10b-tetrahydro-1H-pyrazino[2,1-a]isoindol-2-yl]quinoline-8-carbonitrile], the IC50 turned out to be 5.9 nM.
For `C[C@@H]1CN(c2ccc(C#N)c3ncccc23)C[C@@H]2c3ccc(NCC4COCCN4)cc3CN12` (stereo partly drawn) [Example 57, 5-[(4R,10bS)-4-methyl-8-(morpholin-3-ylmethylamino)-3,4,6,10b-tetrahydro-1H-pyrazino[2,1-a]isoindol-2-yl]quinoline-8-carbonitrile] the value was 11.1 nM.
